Several values for one entry are separate records, joined by “and”; a condition that tells them apart may be missing. Identical values can stand only once. Inconclusive results and toxic doses are left out. Cut-off read from the data, not from the text of the source: active = T/C of 150% or more; inactive = T/C below 125%.
Test system: L1210 leukemia ip in BDF1 mice, survival T/C
Assay: NCI In Vivo Anticancer Drug Screen. Data for tumor model L1210 Leukemia (intraperitoneal) in B6D2F1 (BDF1) mice
Details: endpoint: mean survival time, higher = longer survival
Procedure, shortened: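 Ratio derived from survival: compound-dosed mice over vehicle-dosed mice, all bearing a transplantable tumor.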

[1] = dose: 25.0 mg/kg/injection, schedule: Q04DX003 (ip), vehicle: saline
[2] = dose: 50.0 mg/kg/injection, schedule: Q01DX001 (ip), vehicle: saline
[3] = dose: 50.0 mg/kg/injection, schedule: Q04DX003 (ip), vehicle: saline
[4] = dose: 25.0 mg/kg/injection, schedule: Q01DX009 (ip), vehicle: saline
[5] = dose: 50.0 mg/kg/injection, schedule: Q01DX009 (ip), vehicle: saline
[6] = dose: 100.0 mg/kg/injection, schedule: Q04DX003 (ip), vehicle: saline
[7] = dose: 100.0 mg/kg/injection, schedule: Q04DX002 (ip), vehicle: saline
[8] = dose: 200.0 mg/kg/injection, schedule: Q04DX002 (ip), vehicle: saline
[9] = dose: 400.0 mg/kg/injection, schedule: Q04DX002 (ip), vehicle: saline
[10] = dose: 100.0 mg/kg/injection, schedule: Q04DX003 (ip), vehicle: Klucel (hydroxypropylcellulose) (HPC)
[11] = dose: 200.0 mg/kg/injection, schedule: Q04DX003 (ip), vehicle: Klucel (hydroxypropylcellulose) (HPC)
[12] = dose: 400.0 mg/kg/injection, schedule: Q04DX003 (ip), vehicle: Klucel (hydroxypropylcellulose) (HPC)
[13] = dose: 100.0 mg/kg/injection, schedule: Q01DX009 (ip), vehicle: Klucel (hydroxypropylcellulose) (HPC)
[14] = dose: 200.0 mg/kg/injection, schedule: Q01DX009 (ip), vehicle: Klucel (hydroxypropylcellulose) (HPC)
[15] = dose: 400.0 mg/kg/injection, schedule: Q01DX009 (ip), vehicle: Klucel (hydroxypropylcellulose) (HPC)
[16] = dose: 100.0 mg/kg/injection, schedule: Q01DX001 (ip), vehicle: saline
[17] = dose: 200.0 mg/kg/injection, schedule: Q01DX001 (ip), vehicle: saline
[18] = dose: 400.0 mg/kg/injection, schedule: Q01DX001 (ip), vehicle: saline
[19] = dose: 12.5 mg/kg/injection, schedule: Q01DX009 (ip), vehicle: saline

Measured: T/C

N#C/C(=C\c1ccc(-c2ccccc2)cc1)c1ccccc1
inactive: dose: 12.5 mg/kg/injection, schedule: Q01DX009 (ip), vehicle: saline with Tween-80 87 % of control | dose: 12.5 mg/kg/injection, schedule: Q04DX003 (ip), vehicle: saline with Tween-80 109 % of control | dose: 25.0 mg/kg/injection, schedule: Q01DX009 (ip), vehicle: saline with Tween-80 87 % of control | dose: 25.0 mg/kg/injection, schedule: Q04DX003 (ip), vehicle: saline with Tween-80 91 % of control | dose: 50.0 mg/kg/injection, schedule: Q01DX009 (ip), vehicle: saline with Tween-80 86 % of control | dose: 50.0 mg/kg/injection, schedule: Q04DX003 (ip), vehicle: saline with Tween-80 88 % of control

CC(Cc1ccccc1)N(C)C (stereo unspecified)
inactive: dose: 12.5 mg/kg/injection, schedule: Q01DX001 (ip), vehicle: saline 102 % of control | dose: 25.0 mg/kg/injection, schedule: Q01DX001 (ip), vehicle: saline 94 % of control | [1] 101 % of control | [2] 94 % of control | [3] 101 % of control

CN1CCC=C(C(=O)N2c3ccccc3Sc3ccccc32)C1
inactive: [4] 88 % of control | [1] 97 % of control | [5] 96 % of control | [3] 96 % of control | dose: 100.0 mg/kg/injection, schedule: Q01DX009 (ip), vehicle: saline 102 % of control | [6] 96 % of control and 105 % of control

CCCCCCCC(=O)N1C(C)CCCC1C (stereo unspecified)
inactive: [7] 114 % of control | [8] 111 % of control | [9] 104 % of control

CCO/C(=C\[P+](c1ccccc1)(c1ccccc1)c1ccccc1)c1ccccc1
inactive: dose: 5.0 mg/kg/injection, schedule: Q01DX001 (ip), vehicle: saline 90 % of control | dose: 10.0 mg/kg/injection, schedule: Q01DX001 (ip), vehicle: saline 93 % of control | dose: 20.0 mg/kg/injection, schedule: Q01DX001 (ip), vehicle: saline 95 % of control | dose: 40.0 mg/kg/injection, schedule: Q01DX001 (ip), vehicle: saline 95 % of control

O=C(Nc1ccccc1O)/C(Cl)=C/Cl
inactive: dose: 100.0 mg/kg/injection, schedule: Q01DX009 (ip), vehicle: saline with Tween-80 109 % of control | dose: 100.0 mg/kg/injection, schedule: Q04DX003 (ip), vehicle: saline sonified 104 % of control | dose: 200.0 mg/kg/injection, schedule: Q01DX009 (ip), vehicle: saline with Tween-80 102 % of control | dose: 200.0 mg/kg/injection, schedule: Q04DX003 (ip), vehicle: saline sonified 106 % of control | dose: 400.0 mg/kg/injection, schedule: Q01DX009 (ip), vehicle: saline with Tween-80 88 % of control | dose: 400.0 mg/kg/injection, schedule: Q04DX003 (ip), vehicle: saline sonified 106 % of control

O=[N+]([O-])c1ccc(Oc2ccc(Cl)cc2)cc1
inactive: [10] 94 % of control | [11] 102 % of control | [12] 94 % of control

O=C1OC(c2cccc([N+](=O)[O-])c2)=N/C1=C\c1cccc2ccccc12
inactive: [13] 94 % of control | [7] 96 % of control | [14] 105 % of control | [8] 101 % of control | [15] 97 % of control | [9] 94 % of control

O=C(CCl)c1ccc(Oc2ccc(C(=O)CCl)cc2)cc1
inactive: [2] 100 % of control | [16] 97 % of control | [17] 97 % of control | [18] 105 % of control

CN(C)CCC(C(=O)c1ccccc1)c1ccccn1 (stereo unspecified)
inactive: dose: 55.0 mg/kg/injection, schedule: Q01DX Z (ip), vehicle: saline 100 % of control | dose: 83.0 mg/kg/injection, schedule: Q01DX Z (ip), vehicle: saline 107 % of control | dose: 125.0 mg/kg/injection, schedule: Q01DX Z (ip), vehicle: saline 96 % of control

CCCCSc1nc2ccccc2c(=O)n1-c1ccccc1
inactive: dose: 100.0 mg/kg/injection, schedule: Q01DX001 (ip), vehicle: saline with Tween-80 100 % of control | dose: 200.0 mg/kg/injection, schedule: Q01DX001 (ip), vehicle: saline with Tween-80 103 % of control | dose: 400.0 mg/kg/injection, schedule: Q01DX001 (ip), vehicle: saline with Tween-80 97 % of control

N#CC(=C=[N-])[n+]1ccccc1
inactive: dose: 6.25 mg/kg/injection, schedule: Q01DX009 (ip), vehicle: saline 100 % of control | [19] 100 % of control | dose: 18.8 mg/kg/injection, schedule: Q01DX001 (ip), vehicle: saline 108 % of control | dose: 37.5 mg/kg/injection, schedule: Q01DX001 (ip), vehicle: saline 100 % of control

Nc1cc(C(=O)O)[nH]c(=O)n1
inactive: dose: 100.0 mg/kg/injection, schedule: Q01DX Z (ip), vehicle: methylcellulose (MC) 97 % of control

CCCCN(CCCC)CCN(CCCC)CCN(CCCC)CCCC
inactive: [1] 103 % of control | [3] 98 % of control | [6] 98 % of control and 89 % of control

O=C(O)C(CSC(c1ccccc1)c1ccccc1)NC(=O)C(c1ccccc1)c1ccccc1 (stereo unspecified)
inactive: [13] 112 % of control | [10] 97 % of control | [14] 101 % of control | [11] 99 % of control | [15] 98 % of control | [12] 94 % of control

CO/C(=N\S(=O)(=O)c1ccccc1)C1CC=CCC1/C(=N\S(=O)(=O)c1ccccc1)OC (stereo unspecified)
inactive: [10] 100 % of control | [11] 94 % of control | [12] 100 % of control

NC(N)=NC(N)=Nc1cc(C(F)(F)F)ccc1Cl
inactive: dose: 12.5 mg/kg/injection, schedule: Q01DX009 (ip), vehicle: Klucel (hydroxypropylcellulose) (HPC) 95 % of control | dose: 25.0 mg/kg/injection, schedule: Q01DX009 (ip), vehicle: Klucel (hydroxypropylcellulose) (HPC) 95 % of control | dose: 50.0 mg/kg/injection, schedule: Q01DX009 (ip), vehicle: Klucel (hydroxypropylcellulose) (HPC) 113 % of control

O=C(c1ccccc1)C(C(C(=O)c1ccccc1)N1CCOCC1)N1CCOCC1 (stereo unspecified)
inactive: [2] 94 % of control | [16] 94 % of control | [17] 102 % of control | [18] 94 % of control

COC1C(O)C(CO)OC1n1ccc(N)nc1=O (stereo unspecified)
inactive: [16] 95 % of control | [17] 95 % of control | [18] 98 % of control

CC/C(=N/N(C)C)c1ccccc1
inactive: [6] 96 % of control | dose: 200.0 mg/kg/injection, schedule: Q04DX003 (ip), vehicle: saline 93 % of control

Oc1ccc(Nc2ccnc3cc(Cl)ccc23)cc1CN1CCCC1
inactive: [19] 102 % of control | dose: 12.5 mg/kg/injection, schedule: Q04DX003 (ip), vehicle: saline 101 % of control | [4] 102 % of control | [1] 103 % of control | [5] 100 % of control | [3] 97 % of control | dose: 75.0 mg/kg/injection, schedule: Q01DX009 (ip), vehicle: saline 95 % of control | dose: 115.0 mg/kg/injection, schedule: Q01DX009 (ip), vehicle: saline 102 % of control

Source: PubChem BioAssay AID248 (DTP/NCI, 2004)
